According to ChEMBL document CHEMBL3886554, “Ring-fused bicyclic pyridyl derivatives as FGFR4 inhibitors” (2016):

Molecular target: Fibroblast growth factor receptor 4 (Homo sapiens, UniProt P22455)
Experiment: Biochemical Kinase Assay: Liquid handling and incubation steps were done on an Innovadyne Nanodrop Express equipped with a robotic arm (Thermo CatX, Caliper Twister II) and an incubator (Liconic STX40, Thermo Cytomat 2C450). The assay plates were prepared by addition of 50 nl per well of compound solution in 90% DMSO. The kinase reactions were started by stepwise addition of 4.5 ul per well of …

Sequence of Fibroblast growth factor receptor 4 (P22455 whole entry): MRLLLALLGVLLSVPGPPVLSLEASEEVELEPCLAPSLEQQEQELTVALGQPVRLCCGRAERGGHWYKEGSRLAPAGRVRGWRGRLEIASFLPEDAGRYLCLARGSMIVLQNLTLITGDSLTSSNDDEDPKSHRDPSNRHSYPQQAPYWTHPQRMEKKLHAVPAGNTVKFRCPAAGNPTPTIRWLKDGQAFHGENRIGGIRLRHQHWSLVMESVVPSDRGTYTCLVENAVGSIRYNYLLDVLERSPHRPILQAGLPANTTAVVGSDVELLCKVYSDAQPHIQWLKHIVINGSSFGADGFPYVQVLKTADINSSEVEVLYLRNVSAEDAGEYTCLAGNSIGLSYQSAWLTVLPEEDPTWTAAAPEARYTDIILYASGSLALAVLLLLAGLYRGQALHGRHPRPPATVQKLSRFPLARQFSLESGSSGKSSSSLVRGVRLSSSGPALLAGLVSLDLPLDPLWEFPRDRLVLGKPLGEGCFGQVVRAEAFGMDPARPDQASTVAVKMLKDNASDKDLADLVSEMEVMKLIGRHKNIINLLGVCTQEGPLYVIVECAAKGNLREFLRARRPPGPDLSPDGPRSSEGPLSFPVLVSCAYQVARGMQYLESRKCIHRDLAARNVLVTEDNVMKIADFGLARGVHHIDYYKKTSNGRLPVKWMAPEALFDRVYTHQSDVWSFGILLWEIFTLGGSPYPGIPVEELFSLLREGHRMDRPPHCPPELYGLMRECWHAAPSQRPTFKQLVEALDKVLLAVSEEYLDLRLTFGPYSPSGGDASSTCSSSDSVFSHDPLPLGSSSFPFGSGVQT

CC(C)Oc1cc(NC(=O)N2CCCc3cc(CN(C)C(=O)CO)c(C=O)nc32)ncc1C#N
IC50: 0.3 nM
